Experimental findings from ChEMBL document CHEMBL1201862, “PubChem BioAssay data set” (2004) are described below.

Assay [1] can be described thus: NIH-3T3 fibroblast cytotoxicity, dose response, cytotoxicity control, cell-based, fluorescence, Alamar Blue, secondary assay (AID 2327).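 Note: NIH-3T3 mouse fibroblasts cultured with fluconazole at 8 µg/mL.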 Type of assay: functional.
Assay [2] can be described thus: C. albicans growth with fluconazole, confirmation, fluorescence, retest (AID 2467). Type of assay: functional, cell-based.
Assay [3] is described as follows: inhibitors of intracellular T. cruzi replication, confirmation, NIH3T3 host cells, beta-gal luminescence (AID 2044).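 Note: intracellular parasites grown in NIH/3T3 mouse fibroblasts as host cells; luminescent beta-galactosidase reporter signal from transgenic T. cruzi replicating inside host cells; inhibitors lower the luminescence signal.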 In kind it is functional, cell-based.
Assay [4] can be described thus: cytotoxicity toward NIH3T3 fibroblasts, dose response, counter-screen, cell-based, ATP luminescence, mouse fibroblasts (AID 2010).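 Note: cells exposed to compound for about 90 hours before reading.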 Type of assay: functional.
For assay [5], the target named is T1, Heat shock factor protein 1 (Mus musculus, UniProt P38532).
T1 sequence (P38532 whole entry): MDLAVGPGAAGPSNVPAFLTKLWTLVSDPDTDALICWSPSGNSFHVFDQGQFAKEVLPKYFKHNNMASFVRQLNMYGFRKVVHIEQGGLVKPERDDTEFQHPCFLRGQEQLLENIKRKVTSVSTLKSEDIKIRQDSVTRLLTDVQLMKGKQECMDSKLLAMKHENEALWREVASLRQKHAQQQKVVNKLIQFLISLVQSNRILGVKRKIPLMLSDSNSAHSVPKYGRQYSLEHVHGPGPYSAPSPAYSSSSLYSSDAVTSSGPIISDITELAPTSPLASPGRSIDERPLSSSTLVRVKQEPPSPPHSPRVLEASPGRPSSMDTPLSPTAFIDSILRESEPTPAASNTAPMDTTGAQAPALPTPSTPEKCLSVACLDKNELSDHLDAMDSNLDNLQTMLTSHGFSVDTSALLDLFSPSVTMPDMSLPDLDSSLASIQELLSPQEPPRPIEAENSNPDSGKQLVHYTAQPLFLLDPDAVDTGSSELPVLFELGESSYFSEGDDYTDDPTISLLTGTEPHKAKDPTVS
Description: HSF1 potentiators in luciferase reporter cells, confirmation, cell-based, NIH3T3, luminescence, dose retest (AID 435004).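 Note: stress induced by proteasome inhibitor MG132 added 30 min after compound; luciferase reporter driven by HSF1 response element in NIH3T3 cells; actives raise luminescence as potentiators of the MG132 stress response.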 Type of assay: functional.

The target of assay [6] is Glyceraldehyde-3-phosphate dehydrogenase (Homo sapiens, UniProt P04406).
Chain of Glyceraldehyde-3-phosphate dehydrogenase (P04406 whole entry): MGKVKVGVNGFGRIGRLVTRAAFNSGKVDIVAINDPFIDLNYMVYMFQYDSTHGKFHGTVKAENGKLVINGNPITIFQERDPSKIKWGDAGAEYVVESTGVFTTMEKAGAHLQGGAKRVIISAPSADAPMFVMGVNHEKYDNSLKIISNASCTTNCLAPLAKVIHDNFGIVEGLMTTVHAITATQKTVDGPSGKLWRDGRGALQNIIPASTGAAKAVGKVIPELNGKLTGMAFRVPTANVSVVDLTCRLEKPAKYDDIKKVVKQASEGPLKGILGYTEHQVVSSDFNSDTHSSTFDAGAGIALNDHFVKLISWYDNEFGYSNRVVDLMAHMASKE
For assay [7], the system named is Streptococcus sp. 'group A'. As to the kind of experiment: growth inhibition of control SK(-) GAS strain, dose response, counter-screen for streptokinase expression inhibitor project, luminescence, kanamycin, BacTiterGlo, confirmation (AID 1900). In kind it is functional, organism-based.
In another assay the target is T2, Streptokinase A (Streptococcus pyogenes serotype M1, UniProt P10520).
T2 sequence (P10520 whole entry): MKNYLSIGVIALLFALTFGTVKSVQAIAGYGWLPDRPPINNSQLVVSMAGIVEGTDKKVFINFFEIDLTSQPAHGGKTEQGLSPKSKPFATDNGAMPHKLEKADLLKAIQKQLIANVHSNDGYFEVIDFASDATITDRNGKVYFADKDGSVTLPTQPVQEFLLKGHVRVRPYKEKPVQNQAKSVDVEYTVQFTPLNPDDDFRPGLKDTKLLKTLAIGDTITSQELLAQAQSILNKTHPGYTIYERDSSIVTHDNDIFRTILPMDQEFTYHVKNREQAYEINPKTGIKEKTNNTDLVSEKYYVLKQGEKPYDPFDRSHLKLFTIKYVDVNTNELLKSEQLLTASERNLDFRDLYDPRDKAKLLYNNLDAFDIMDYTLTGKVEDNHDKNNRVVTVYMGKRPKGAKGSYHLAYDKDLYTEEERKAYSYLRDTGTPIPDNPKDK
Description: S. pyogenes streptokinase expression inhibitors, potency, dose response, plasminogen activation absorbance, OD405 (AID 1914).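 Note: secreted streptokinase activity via plasminogen activation per viability signal from cell pellet.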 In kind it is functional, Streptococcus pyogenes M1 GAS.

A further assay deals with Streptococcus. As to the kind of experiment: Group A Streptococcus viability loss, dose response, counter-screen for streptokinase expression inhibitor project, luminescence, BacTiterGlo (AID 1915).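 Note: potency for reduction of bacterial viability or growth.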 In kind it is functional, organism-based. (Counterscreens check selectivity or assay interference.)
Assay [8] in a line: inhibitors of firefly luciferase expression or activity, dose response, H4 neuroglioma cells, luminescence (AID 1990). In kind it is functional, cell-based.
A short description of assay [9]: Luminescence Cell-Based Dose Response HTS to Identify Inhibitors of 5'UTR Stem-Loop Driven Prion Protein mRNA Translation in H4 Neuroglioblastoma Cells. [Related pubchem assays: 1827 (Project Summary), 1813 (Primary HTS)]. In kind it is functional.
A short description of assay [10]: inhibitors of SNCA 5'UTR-driven reporter translation, confirmation, H4 neuroglioma cells, luminescence (AID 1988). Type of assay: functional, cell-based.
In a further assay the target is Cytochrome P450 3A4 (Homo sapiens, UniProt P08684).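 Note: CYP3A4 tested as one member of a cytochrome P450 panel screen.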
Chain of Cytochrome P450 3A4 (P08684 whole entry): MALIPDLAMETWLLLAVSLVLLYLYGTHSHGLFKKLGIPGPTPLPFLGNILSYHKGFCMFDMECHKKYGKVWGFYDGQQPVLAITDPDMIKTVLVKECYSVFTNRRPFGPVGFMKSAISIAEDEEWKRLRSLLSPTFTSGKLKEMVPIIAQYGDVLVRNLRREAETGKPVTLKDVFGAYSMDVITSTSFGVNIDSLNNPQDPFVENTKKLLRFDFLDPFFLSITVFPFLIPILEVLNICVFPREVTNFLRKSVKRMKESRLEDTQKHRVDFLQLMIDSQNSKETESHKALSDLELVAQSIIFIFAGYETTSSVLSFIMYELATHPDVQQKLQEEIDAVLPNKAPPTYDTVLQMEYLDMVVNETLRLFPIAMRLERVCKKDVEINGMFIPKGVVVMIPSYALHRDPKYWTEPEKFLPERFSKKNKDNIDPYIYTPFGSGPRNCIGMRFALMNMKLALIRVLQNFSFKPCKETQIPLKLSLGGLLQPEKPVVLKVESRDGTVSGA
Assay [11] can be described thus: Shn3 3'UTR reporter inhibitors, dose response, cell-based, Clone20 osteoblasts, firefly luciferase, cherry-picked (AID 624132).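 Note: firefly luciferase luminescence from reporter carrying the Shn3 3'UTR in osteoblasts.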 In kind it is functional.
Assay [12] in a line: control 3'UTR Renilla luciferase suppression, dose response, counter-screen for Shn3 inhibitor project, cell-based, Clone20-Shn3RL, cherry-picked (AID 624133). In kind it is functional.
The next assay concerns SN12K1. As to the kind of experiment: cells. In kind it is functional. As to conditions: Homo sapiens.
The next assay has as its target Paired box protein Pax-8 (Homo sapiens, UniProt Q06710). Description: inhibitors of PAX8-driven TPO luciferase reporter, dose response, RMG-I cells, cherry-pick (AID 687027).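 Note: luciferase reporter driven by Pax8 target thyroperoxidase promoter measured by SteadyGlo luminescence.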 Type of assay: functional, cell-based. For orientation: In a reporter assay the amount or activity of a reporter protein is the signal.

The source made the active and inactive calls. Cut-off read from the data, not from the text of the source, for most assays here: actives have a measured EC50 and inactives only a lower limit.

Chain of Paired box protein Pax-8 (Q06710 whole entry): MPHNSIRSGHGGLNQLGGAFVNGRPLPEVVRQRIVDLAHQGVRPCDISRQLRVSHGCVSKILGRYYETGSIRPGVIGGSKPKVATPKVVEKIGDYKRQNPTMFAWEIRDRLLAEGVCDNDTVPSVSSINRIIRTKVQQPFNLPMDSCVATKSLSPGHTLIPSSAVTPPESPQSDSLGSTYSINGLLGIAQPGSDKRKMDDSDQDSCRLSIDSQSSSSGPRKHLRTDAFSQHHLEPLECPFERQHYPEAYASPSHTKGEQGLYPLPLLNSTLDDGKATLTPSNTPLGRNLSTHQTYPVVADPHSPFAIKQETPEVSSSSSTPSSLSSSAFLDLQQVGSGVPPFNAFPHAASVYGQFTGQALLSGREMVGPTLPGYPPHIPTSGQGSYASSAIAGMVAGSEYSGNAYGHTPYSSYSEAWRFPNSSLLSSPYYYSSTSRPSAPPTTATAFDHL

For `NC1=NC(=O)C(Cc2cccc(Cl)c2Cl)S1` (configuration not stated), the EC50 is 21.6 µM (inconclusive) in assay [1] and > 38 µM (not active) in [2].

As to `C=CCN(C(=O)CCc1ccccc1OC)c1nc(-c2ccc(S(C)(=O)=O)cc2)cs1`, the EC50 in [3] was 1.93 µM (active); in [4], 5.05 µM (active); in assay [5] it was > 260 µM (inactive). As for `O=C1CC(C(=O)Nc2ccc(O)c(C(=O)O)c2)C(c2ccccc2)O1` (configuration not stated), in assay [6], the IC50 is listed as > 100 µM (not active).

`CCCc1nnc(N=C(S)Nc2ccccc2)s1`: the EC50 in assay [1] was > 160 µM (inactive); in assay [2] it was 1.09 µM (active). `S=C(Nc1ccc(Cl)cc1)Nc1ccc2c(c1)OCCO2`: the EC50 was > 150 µM (inactive) in assay [1] and > 38 µM (not active) in assay [2]. Regarding `CN(Cc1ccccc1)C(=O)c1cc(-c2ccc(Br)cc2)on1`, the EC50 in assay [5] is 110 µM (active). Regarding `O=C(CSc1ccc(Cl)cc1)Nc1nnc(-c2ccco2)o1`, the EC50 in assay [1] is > 160 µM (inconclusive); in assay [2] it was 3.02 µM (active). In the case of `CCC(C)c1ccc(C2C3=C(O)c4ccccc4C3=Nc3nc(N)nc(O)c32)cc1` (configuration not stated), the EC50 in [7] is 3.11 µM (active); at Streptokinase A, > 50 µM (not active); in the assay on Streptococcus it was 8.57 µM (active).

Take `COc1cccc(-c2nnc(SCc3nc4ccccc4[nH]3)n2N)c1`: the EC50 in assay [5] is > 260 µM (inactive).

As to `O=C(/C=C/c1ccco1)Nc1nc(-c2ccccn2)cs1`, the EC50 in [7] is 18 µM (active); on Streptokinase A, > 150 µM (not active); in [3] it was 4.02 µM (active); in assay [4], 11.6 µM (active); in the assay on Streptococcus it was > 150 µM (not active).

Regarding `CC(=O)Nc1ncnc2c1c(-c1ccc(Cl)cc1)nn2C(C)(C)C`, the EC50 in [1] was 36.2 µM (active); in assay [8], 11.4 µM (active); in assay [9] it was 13.3 µM (active); in assay [10], 10.2 µM (active); in [2], 1.15 µM (active); in assay [3] it was 0.14 µM (active). Also, the EC50 in assay [4] is 2.66 µM (active).

With `Cc1cccc(Sc2nc(-c3ccccc3)ncc2C(=O)O)c1`, the EC50 in [1] is 104 µM (active); in [2] it was 1.66 µM (active). With `COc1ccc(C(=O)N2CC3(CC(c4ccc(Cl)cc4)=NO3)C[C@H]2C(=O)NCC(N)=O)cc1` (some centres not stated), the AC50 at Cytochrome P450 3A4 was 31.6 µM (inconclusive). On to `O=C(CN1C(=O)NC(Cc2c[nH]c3ccccc23)C1=O)Nc1cccc(S(=O)(=O)N2CCOCC2)c1` (configuration not stated), for which the EC50 in [5] is > 260 µM (inactive). On to `O=C(O)c1ccc(-c2nc(-c3ccc(Cl)c(Cl)c3)cs2)cc1`, for which the EC50 in assay [1] is > 160 µM (inactive); in assay [7], 3.54 µM (active); in assay [2], 3.35 µM (active); with Streptococcus, 6.62 µM (active). Consider `COc1cccc(N2C(=O)C(Cl)=C(N3CCOCC3)C2=O)c1`, for which the IC50 in assay [6] was > 50 µM (inconclusive). As to `C[C@H]1CC(C)(C)C[C@@](OCCN2CCCCC2)(c2ccccc2)C1`, the AC50 on Cytochrome P450 3A4 is 3.16 µM (inconclusive). With `CN(C)c1ccc(CNc2ncnc3sccc23)cc1`, the EC50 in assay [1] was > 160 µM (inactive); in [2] it was 2.63 µM (active). As to `c1ccc(-c2csc3ncnc(N4CCc5ccccc5C4)c23)cc1`, the EC50 is 5.31 µM (active) in [7], 4.83 µM (active) on Streptokinase A and 19.5 µM (active) with Streptococcus. With `COc1cccc(C(=O)COC(=O)C(C)N2C(=O)C3C4C=CC(C4)C3C2=O)c1` (configuration not stated), in assay [5], the EC50 was > 260 µM (inactive). As to `Cc1ccc(-n2c(O)cc(=O)nc2SCC(=O)Nc2ccc3c4c(cccc24)CC3)cc1`, the EC50 in assay [7] was 28.4 µM (active); at Streptokinase A, > 150 µM (not active); with Streptococcus, > 150 µM (not active). In the case of `FC(F)(F)c1cccc(NC(=S)N2CCCC2)c1`, the EC50 (in assay [7]; on Streptokinase A; in the assay on Streptococcus) was > 150 µM (not active) each time. With `O=c1[nH]n2c(C(F)(F)F)cc(C3CC3)nc2c1N=Nc1ccccc1`, the EC50 is > 150 µM (inactive) in assay [1] and 1.05 µM (active) in assay [2]. For `O=c1c(-c2ccccc2)nc2cnc(Nc3ccccc3)nc2n1C[C@H]1CCCO1`, the AC50 at Cytochrome P450 3A4 was 12.6 µM (inconclusive). Same read-out and setting: the result for `O=C(O)[C@@H]1[C@@H](C(=O)NCc2ccncc2)[C@@H]2C=C[C@@H]1O2` reads 3.98 µM (inconclusive).

On to `Cc1ccc2c(O)nc(Nc3nc(C)cc(-c4ccccc4)n3)nc2c1`, for which the concentration giving a half-maximal response (EC50) is 7.26 µM (active) in [7], > 150 µM (not active) on Streptokinase A and 5.49 µM (active) with Streptococcus. For the molecule `CCn1nc(C)cc1C(=O)Sc1ccc(Cl)cc1Cl`, in assay [5], the EC50 was 14.9 µM (active). As for `Cc1ccc(-c2nnc(-c3ccc(NC(=O)c4cccs4)cc3)o2)cc1`, on Cytochrome P450 3A4, the AC50 was 20 µM (inconclusive). As to `N#Cc1ccccc1-c1cncnc1NCc1cccnc1`, at Cytochrome P450 3A4, the AC50 is 0.2 µM (inconclusive).

For the molecule `COC(=O)c1cn(CCOc2ccc(C)cc2)c2ccccc12`, in [5], the EC50 is > 260 µM (inactive). `CC(=O)N1CCOCCOCCN(C(C)=O)CCOCCOCC1`: in assay [1], the EC50 is > 150 µM (inconclusive). In the case of `CCOC(=O)N1CCN(CC(c2ccccc2)c2ccccc2)CC1`, the half-maximal activity concentration (AC50) is 14.1 µM (active) in assay [11] and 39.1 µM (active) in assay [12]. Regarding `Cc1ccc(N2NC(=O)/C(=C/c3c(C)c(C#N)c4nc5ccccc5n4c3O)C2=O)cc1C`, the 50% inhibitory concentration (IC50) in [6] was > 100 µM (not active). `COC(=O)N1CCC2(CCCN(Cc3ccccc3OC)C2)CC1`: the AC50 at Cytochrome P450 3A4 is 6.31 µM (inconclusive).

As to `CC(C)[C@H](NC(N)=O)C(=O)NNC(=O)COc1cccc(C(F)(F)F)c1`, the EC50 in [5] was > 260 µM (inactive). On to `CCOC(=O)N1CCN(C(=O)c2cnc3n(c2=O)CCS3)CC1`, for which, in [5], the EC50 was > 260 µM (inactive). Turning to `CCCCOc1ccc(-c2nc(/C=N/c3nccs3)c(O)o2)cc1`, the EC50 in assay [5] is > 260 µM (inactive). As to `CN(C)CCNC(=O)c1cccc2ccc(-c3ccc(O)cc3)nc12`, the GI50 in the assay with SN12K1 is 0.637 µM (active).

As for `COc1ccc(CN(C)C[C@H]2Oc3ccc(NC(=O)Nc4ccc5c(c4)OCO5)cc3CC(=O)N([C@H](C)CO)C[C@H]2C)cc1`, the AC50 at Paired box protein Pax-8 was 62.3 µM (active). On the same count and under the same terms, the result for `C[C@@H]1CCCCO[C@H](CN(C)C(=O)c2ccccc2)[C@@H](C)CN([C@@H](C)CO)C(=O)c2cc(NC(=O)Nc3ccc(C(F)(F)F)cc3)ccc2O1` reads 3.72 µM (active); that for `C[C@H](CO)N1C[C@H](C)[C@H](CN(C)Cc2ccc3c(c2)OCO3)OCCCC[C@H](C)Oc2ccc(NS(=O)(=O)c3ccc(Cl)cc3)cc2C1=O`, 9.86 µM (active); that for `CN1C[C@@H]2[C@H](c3ccccc31)[C@H](CO)N2Cc1ccccc1Cl`, 50.5 µM (active). In the case of `COc1ccc(/N=C2/S/C(=C\c3ccc(C)s3)C(=O)N2CC(C)C)cc1`, at Cytochrome P450 3A4, the AC50 is 5.01 µM (inconclusive). In the case of `COc1ccc(C)cc1S(=O)(=O)Nc1cnc2ccccc2c1`, the IC50 in assay [6] is > 100 µM (not active).

As usually defined, the EC50 is the concentration needed to bring the measured effect to its halfway point. For orientation: IC50 means the concentration needed to halve the response being measured. As a reminder, the AC50 is the concentration giving half of the maximal activity seen. As a reminder, the GI50 is the concentration that inhibits growth by half.
